Assay results: article PMC10961714, “Novel chemotype NLRP3 inhibitors that target the CRID3-binding pocket with high potency” (Life Science Alliance, 2024)

Tests used:
[1] = biological target: T1, carbonic anhydrase I (Homo sapiens, UniProt P00915); test: p-NPA esterase activity assay with […] compound; assay type: biochemical
T1 construct: gene CA1; recombinant carbonic anhydrase I (C4396, Sigma-Aldrich)

[2] = biological target: T2, carbonic anhydrase II (Homo sapiens, UniProt P00918); test: p-NPA esterase activity assay with […] compound; assay type: biochemical
T2 construct: gene CA2; CA II (C6165, Sigma-Aldrich)

[3] = biological target: T3, NLRP3 (Homo sapiens, UniProt Q96P20); test: NanoBRET target engagement (tracer displacement) in live HEK293 cells; assay type: cell-based
T3 construct: full-length NLRP3-Nanoluc fusion protein
T3 sequence (Q96P20 whole entry, the tested form may be a part): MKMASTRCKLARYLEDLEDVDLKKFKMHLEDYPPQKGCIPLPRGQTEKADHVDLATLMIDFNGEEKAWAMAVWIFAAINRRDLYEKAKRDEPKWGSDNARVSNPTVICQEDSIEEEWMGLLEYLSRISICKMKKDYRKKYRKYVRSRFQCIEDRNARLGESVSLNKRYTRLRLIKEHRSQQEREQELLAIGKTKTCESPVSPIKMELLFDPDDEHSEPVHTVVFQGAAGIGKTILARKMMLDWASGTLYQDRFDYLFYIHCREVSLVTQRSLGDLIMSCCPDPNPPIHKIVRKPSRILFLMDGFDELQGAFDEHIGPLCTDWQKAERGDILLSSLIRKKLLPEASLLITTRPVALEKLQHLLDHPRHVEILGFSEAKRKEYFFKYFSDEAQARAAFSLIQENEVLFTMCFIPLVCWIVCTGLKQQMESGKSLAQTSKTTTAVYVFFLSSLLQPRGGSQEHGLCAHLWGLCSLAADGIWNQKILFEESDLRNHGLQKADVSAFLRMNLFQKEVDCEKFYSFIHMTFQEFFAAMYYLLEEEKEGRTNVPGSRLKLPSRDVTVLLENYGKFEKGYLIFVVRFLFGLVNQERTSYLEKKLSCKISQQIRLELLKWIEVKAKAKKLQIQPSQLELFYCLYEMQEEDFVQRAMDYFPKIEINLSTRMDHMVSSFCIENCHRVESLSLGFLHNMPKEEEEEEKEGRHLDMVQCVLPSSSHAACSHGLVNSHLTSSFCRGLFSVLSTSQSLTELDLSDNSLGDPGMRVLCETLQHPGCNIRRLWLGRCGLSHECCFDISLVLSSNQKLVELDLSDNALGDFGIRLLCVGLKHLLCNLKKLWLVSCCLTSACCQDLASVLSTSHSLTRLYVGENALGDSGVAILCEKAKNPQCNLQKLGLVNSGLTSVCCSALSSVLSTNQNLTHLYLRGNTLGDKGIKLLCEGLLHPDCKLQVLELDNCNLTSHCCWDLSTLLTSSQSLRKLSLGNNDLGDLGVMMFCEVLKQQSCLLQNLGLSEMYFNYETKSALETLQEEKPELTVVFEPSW

T1 sequence (P00915 2-261): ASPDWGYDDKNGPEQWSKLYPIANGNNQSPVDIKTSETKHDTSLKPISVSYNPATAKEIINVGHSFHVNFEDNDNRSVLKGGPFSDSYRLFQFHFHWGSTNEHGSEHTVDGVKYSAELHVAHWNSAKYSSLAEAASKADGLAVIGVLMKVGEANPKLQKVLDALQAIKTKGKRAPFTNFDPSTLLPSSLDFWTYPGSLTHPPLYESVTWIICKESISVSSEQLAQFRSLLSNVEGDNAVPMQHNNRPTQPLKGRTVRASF

Structure (SMILES)	p-NPA esterase activity assay with 100 μM compound [1]	p-NPA esterase activity assay with 100 μM compound [2]	IC50 [3] [µM]
CC(C)(O)c1coc(S(=O)(=O)NC(=O)Nc2c3c(cc4c2CCC4)CCC3)c1 [CRID3]	observed significant inhibition of the related enzyme carbonic anhydrase I as well	We confirmed this off-target activity of CRID3 in our studies	
CC(C)(O)c1nn(CC(=O)Nc2ccncn2)c(=O)c2cc3sc(Cl)cc3n12 [NIC-11]			0.212
CC(C)c1nn(CC(=O)N[C@@H]2CCCN(CC3CC3)C2)c(=O)c2cc3sc(Cl)cc3n12 [NIC-12]			0.131
